Laboratory results as given in paper PMC3285556 (Molecular Microbiology, 2011).

How the values were obtained:
[1] = target: V. harveyi wild-type CqsS receptor (Vibrio campbellii, UniProt A7N6S2); experiment: cell-based; type: cell-based
[2] = target: V. cholerae CqsS receptor (wild-type) (Vibrio cholerae serotype O1, UniProt Q9KM66); type: cell-based
V. harveyi CqsA = V. harveyi CqsA (Vibrio campbellii, UniProt A7N6R9); experiment: Coupled-enzyme assay for CqsA enzyme kinetics; type: biochemical; conditions: Vh CqsA, acyl CoA substrate, 200 µM SAM
V. cholerae CqsA = V. cholerae CqsA (Vibrio cholerae serotype O1, UniProt Q9KM65); experiment: Coupled-enzyme assay for CqsA enzyme kinetics; type: biochemical; conditions: for Km / Vmax / kcat: Vc CqsA, acyl CoA substrate, 200 µM SAM
V. cholerae CqsS C170F = V. cholerae CqsS C170F (Vibrio cholerae serotype O1, UniProt Q9KM66, C170F); type: cell-based

CCCCCCCC(O)C(=O)CC (stereo not drawn) [4-hydroxyundecan-3-one]
agonist activity on V. harveyi CqsS (light production in JMH626), in words [1]: inactive

CCCCCCCCCC(=O)[C@@H](N)CC [Am-CAI-1, (S)-3-aminotridecan-4-one]
potency relative to hydroxy counterpart ([1]; V. harveyi CqsS, data not shown): comparable to the CAI-1 and C8-CAI-1 counterparts
potency relative to hydroxy counterpart ([2]; V. cholerae CqsS, data not shown): comparable to the CAI-1 and C8-CAI-1 counterparts

CCCCCCCC(=O)SCCNC(=O)CCNC(=O)C(O)C(C)(C)COP(=O)(O)OP(=O)(O)OC[C@H]1O[C@@H](n2cnc3c(N)ncnc32)[C@H](O)[C@@H]1OP(=O)(O)O (stereo partly drawn) [C8 CoA, octanoyl CoA]
Km (V. harveyi CqsA): 14.1 ± 1.3 µM
Vmax (V. harveyi CqsA): 0.64 ± 0.02 µM/min
kcat (V. harveyi CqsA): 0.178 ± 0.0067 s⁻¹
Km (V. cholerae CqsA): 73 ± 4.9 µM
Vmax (V. cholerae CqsA): 1.4 ± 0.05 µM/min
kcat (V. cholerae CqsA): 0.075 ± 0.00283 s⁻¹

CCCCCCCC(=O)C(O)CC (stereo not drawn) [C8-CAI-1, 3-hydroxyundecan-4-one]
EC50 ([1]; EC50, V. harveyi wild-type CqsS): 5 µM
agonist activity on V. harveyi CqsS (light production in JMH626), in words [1]: weak agonist
increase in light production ([1]; JMH626, 10 µM): approximately 400 fold
light production on increasing the concentration ([1]; JMH626, 50 µM): did not further activate light production

CCCCCCCCCC(=O)SCCNC(=O)CCNC(=O)C(O)C(C)(C)COP(=O)(O)OP(=O)(O)OC[C@H]1O[C@@H](n2cnc3c(N)ncnc32)[C@H](O)[C@@H]1OP(=O)(O)O (stereo partly drawn) [C10 CoA, decanoyl coenzyme A]
substrate preference of V. cholerae CqsA, C10-CoA over C8-CoA (Km and kcat) (V. cholerae CqsA): four- to sixfold
Km (V. cholerae CqsA): 13 ± 3.1 µM
Vmax (V. cholerae CqsA): 1.2 ± 0.15 µM/min
kcat (V. cholerae CqsA): 0.325 ± 0.0417 s⁻¹

CCCCCCCCCC(=O)[C@@H](O)CC [CAI-1, (S)-3-hydroxytridecan-4-one]
agonist activity on V. harveyi CqsS (light production in JMH626), in words [1]: insensitive
detection by V. cholerae CqsS C170F, in words (V. cholerae CqsS C170F): only detects Ea-C8-CAI-1 and C8-CAI-1, but not CAI-1 and Ea-CAI-1

C/C=C(\N)C(=O)CCCCCCC [Ea-C8-CAI-1, (Z)-3-aminoundec-2-en-4-one]
agonist activity on V. harveyi CqsS (light production in JMH626), in words [1]: induce maximal light production
difference in EC50 between C8-CAI-1 and Ea-C8-CAI-1 [2]: 30 fold
